Test results reported in patent publication US11332440B2, “4-oxo-alkylated tetramic acid compound, and preparation method thereof” (priority 2017, dated 2022).

Tested on: Drosophilae containing and expressing human Abeta42 gene
Experiment: Pavlov's olfactory-related instantaneous memory test in Drosophila
Type: in vivo
Settings: increasing dosage, compared with memantine hydrochloride; FIG. 3
Text: Drosophila has a classical learning and memory paradigm, known as Pavlov's olfactory-related instantaneous memory. During the training program, a group of about 100 drosophilae were exposed sequentially to two odors, i.e., 3-octanol and 4-methylcyclohexanol, each odor for 60 seconds, and to fresh air for 45 seconds therebetween. During exposure to the first odor, the drosophilae were electrocuted on their feet (1.5-second pulses at 3.5-second intervals, 60V), while no electrocution was exerted during exposure to the second odor. In order to detect “instantaneous memory” (also known as “learning”), drosophilae were transferred to the selection area in the T maze immediately after training and forced to choose between the two odors. The drosophilae in each T-maze arm were then captured, anesthetized, and counted. The behavior index was calculated from the distribution of drosophilae in the T maze. […] In each experiment, the age of the control group was matched with that of the experimental group.
Pharmacodynamic evaluation of the candidate compounds: Drosophilae containing and expressing human Abeta42 gene were selected as a diseased control, and drosophilae containing but not expressing human Abeta42 gene were selected as a healthy control. The day after emergence of the drosophilae, male drosophilae were selected and fed. […] The above memory test was performed on the drosophilae on the tenth day.

| Compound | dose-effect relationship to improve memory of drosophilae with Alzheimer's disease |
| --- | --- |
| O=C1C=C(OCc2ccccc2F)[C@H](Cc2ccccc2)N1 [Compound 51121] | eventually reaches or exceeds the level of the activity of the positive compound memantine hydrochloride |
| O=C1C=C(OCc2cccs2)[C@H](Cc2ccccc2)N1 [Compound 51151] | eventually reaches or exceeds the level of the activity of the positive compound memantine hydrochloride |
| O=C1C=C(OCc2cccc3ccccc23)[C@H](Cc2ccccc2)N1 [Compound 51311] | eventually reaches or exceeds the level of the activity of the positive compound memantine hydrochloride |
| CC(=O)Oc1ccc(COC2=CC(=O)N[C@H]2Cc2ccccc2)cc1 [Compound 51351] | eventually reaches or exceeds the level of the activity of the positive compound memantine hydrochloride |
